{"source": "patent US20250367228A1", "about": "“FORMULATIONS FOR BOOSTING NAD+ USING MULTIPLE BIOLOGICAL PATHWAYS CONCURRENTLY TO OVERCOME ENZYMATIC DEGRADATION AND IMPROVE DOWNSTREAM BENEFITS” (PROHEALTH, priority 2023, published 2025)", "origin": "cited, not measured here", "key": {"[1]": {"test_system": "NAD+ blood concentrations", "settings": "1000 mg/day of NR, elderly subjects"}, "CD38": {"target": "T1, CD38 (Homo sapiens, UniProt P28907)", "T1 sequence (P28907 1-300)": "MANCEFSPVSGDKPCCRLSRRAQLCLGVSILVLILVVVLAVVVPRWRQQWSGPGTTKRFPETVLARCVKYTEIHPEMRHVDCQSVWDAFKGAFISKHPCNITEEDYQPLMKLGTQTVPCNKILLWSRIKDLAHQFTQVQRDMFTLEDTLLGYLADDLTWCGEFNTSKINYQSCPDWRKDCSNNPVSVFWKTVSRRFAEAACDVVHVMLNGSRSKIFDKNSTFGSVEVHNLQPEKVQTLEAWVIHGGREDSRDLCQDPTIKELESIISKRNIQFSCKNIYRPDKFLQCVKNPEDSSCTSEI"}}}
{"smiles": "NC(=O)c1ccc[n+]([C@@H]2O[C@H](CO)[C@@H](O)[C@H]2O)c1", "note": "[NR, Nicotinamide riboside]", "values": [{"measurement": "increase of NAD+ blood concentrations", "setting": "[1]", "value": "two-fold"}]}
{"smiles": "O=c1c(O)c(-c2ccc(O)c(O)c2)oc2cc(O)cc(O)c12", "note": "[quercetin]", "values": [{"measurement": "inhibition of CD38", "setting": "CD38", "value": "inhibited"}]}
{"smiles": "O=c1cc(-c2ccc(O)cc2)oc2cc(O)cc(O)c12", "note": "[apigenin]", "values": [{"measurement": "inhibition of CD38", "setting": "CD38", "value": "inhibited"}]}
